From patent US7745459B2, “Quinolizinone compound and use thereof as HIV integrase inhibitor” (Japan Tobacco Inc., priority 2004, dated 2010) come the findings set out here.

Molecules are shown by their SMILES. pIC50: −log10 of the molar value.

As usually defined, the pIC50 is −log10 of the IC50, conventionally taken in molar units.

The target in this experiment is T1, HIV integrase (Human immunodeficiency virus type 1 group M subtype B, UniProt P12497, F1332H).
T1 construct: HIV integrase full length gene; made in house; host or cells: Escherichia coli BL21 (DE3)
Briefly: Determination of enzyme (HIV integrase) inhibitory activity. The note with it: recombinant integrase protein (phenylalanine at codon 185 substituted by histidine); donor/target DNA, absorbance at 450 nm; read-out: Anti-integrase activity (IC50 value). The class given is biochemical. The source says: The following explains evaluation methods of the HIV integrase inhibitory activity of the compound of the present invention.
HIV integrase full length gene (J. Virol., 67, 425-437 (1993)) in which phenylalanine at codon 185 was substituted by histidine, was inserted between the restriction enzyme NdeI and XhoI sites of plasmid pET21a(+) (Novagen), whereby an integrase expression vector pET21a-INH was constructed.
Escherichia coli recombinant BL21 (DE3) transformed with plasmid pET21a-INH obtained in (i) was shake cultured at 37° C. in a liquid medium containing ampicillin. When the culture reached the logarithmic growth phase, isopropyl-β-D-thiogalactopyranoside was added to promote expression of integrase gene. The culture was continued for 3 hr to promote accumulation of the integrase protein. The recombinant E. coli was collected in pellets by centrifugal separation and preserved at −80° C.
The E. coli was suspended in Lysis buffer (20 mM HEPES (pH 7.5), 5 mM DTT, 10 mM CHAPS, 10% glycerol) containing 1 M sodium chloride and subjected to repeat pressurization and depressurization for rupture, and centrifugal separation at 4° C., 40,000×g, 60 min to recover a water-soluble fraction (supernatant). This was diluted 10-fold with Lysis buffer free of sodium chloride, mixed with SP-Sepharose (Pharmacia Corporation) and stirred at 4° C. for 60 min to allow adsorption of integrase protein to the resin. The resin was washed with Lysis buffer containing 100 mM sodium chloride and the integrase protein was eluted with Lysis buffer containing 1 M sodium chloride.
The eluted integrase protein solution was subjected to a Superdex 75 (Pharmacia Corporation) column for gel filtration. The protein was eluted with Lysis buffer containing 1 M sodium chloride.
The obtained fractions of the integrase protein were collected and preserved at −80° C.
The following DNA synthesized by Greiner was dissolved in TE buffer (10 mM Tris-hydrochloric acid (pH 8.0), 1 mM EDTA) and mixed with donor DNA, target DNA, and each complementary strand (+ and − strands) to 1 μM. The mixture was heated at 95° C. for 5 min, 80° C. for 10 min, 70° C. for 10 min, 60° C. for 10 min, 50° C. for 10 min and 40° C. for 10 min and kept at 25° C. to give a double stranded DNA, which was used for the test.
The donor DNA was diluted with TE buffer to 10 nM, of which 50 μl was added to each well of streptavidin-coated microtiter plate (Roche) and allowed to adsorb at 37° C. for 60 min. The plate was washed with phosphate buffer (Dulbecco's PBS, Sanko Junyaku Co., Ltd.) containing 0.1% Tween 20 and phosphate buffer. Then, a reaction mixture (70 μl) having the following composition, a test substance (10 μl) diluted with the reaction mixture and 100 μg/ml integrase protein (10 μl) were added to each well and reacted at 37° C. for 60 min. Composition of the reaction mixture: 30 mM MOPS (3-morpholinopropanesulfonic acid), 5 mM magnesium chloride, 3 mM DTT (dithiothreitol), 0.1 mg/ml BSA (bovine serum albumin), 5% glycerol, 10% DMSO (dimethyl sulfoxide), 0.01% Tween 20.
Then, 50 nM target DNA (10 μl) was added, and the mixture was reacted at 37° C. for 10 min and washed with phosphate buffer containing 0.1% Tween 20 to stop the reaction.
Then, 100 mU/ml peroxidase labeled anti-digoxigenin antibody solution (Roche, 100 μl) was added, and the mixture was reacted at 37° C. for 60 min, followed by washing with phosphate buffer containing 0.1% Tween 20.
A peroxidase color solution (Bio Rad, 100 μl) was added and allowed to react at room temperature for 4 min. The color reaction was stopped by adding 1N sulfuric acid (100 μl). The absorbance at 450 nm was measured. […]
Take `NC(=O)Cc1cc(C(=O)O)c(=O)n2cc(Cc3cccc(Cl)c3F)ccc12` [Example 26, 1-carbamoylmethyl-7-(3-chloro-2-fluorobenzyl)-4-oxo-4H-quinolizine-3-carboxylic acid]: the pIC50 was 7.00 to 8.00.

With `C[C@@H](CO)c1cc(C(=O)O)c(=O)n2cc(Cc3cccc(Cl)c3F)ccc12` [Example 14, 7-(3-chloro-2-fluorobenzyl)-1-((R)-2-hydroxy-1-methylethyl)-4-oxo-4H-quinolizine-3-carboxylic acid], the negative-log IC50 (pIC50) is 7.00 to 8.00.

Regarding `COc1cc2c([C@H](CO)C(C)(C)C)cc(C(=O)O)c(=O)n2cc1Cc1cccc(Cl)c1F` [Example 17, 7-(3-chloro-2-fluorobenzyl)-1-((R)-1-hydroxymethyl-2,2-dimethylpropyl)-8-methoxy-4-oxo-4H-quinolizine-3-carboxylic acid], the pIC50 is greater than 8.00.

Consider `COCOc1cc(C(=O)O)c(=O)n2cc(Cc3cccc(Cl)c3F)ccc12` [Example 58, 7-(3-chloro-2-fluorobenzyl)-1-methoxymethoxy-4-oxo-4H-quinolizine-3-carboxylic acid], for which the pIC50 was 6.00 to 7.00.

With `CC(C)c1cc(C(=O)O)c(=O)n2cc(Cc3cccc(Cl)c3F)ccc12` [Example 13, 7-(3-chloro-2-fluorobenzyl)-1-isopropyl-4-oxo-4H-quinolizine-3-carboxylic acid], the pIC50 was 7.00 to 8.00.

For `CCc1cc(C(=O)O)c(=O)n2cc(Cc3cccc(Cl)c3F)ccc12` [Example 4, 7-(3-chloro-2-fluorobenzyl)-1-ethyl-4-oxo-4H-quinolizine-3-carboxylic acid], the pIC50 was 7.00 to 8.00.

With `COC(=O)NCc1cc(C(=O)O)c(=O)n2cc(Cc3cccc(Cl)c3F)ccc12` [Example 24, 7-(3-chloro-2-fluorobenzyl)-1-(methoxycarbonylaminomethyl)-4-oxo-4H-quinolizine-3-carboxylic acid], the pIC50 is 7.00 to 8.00.

For `CC(C)C(=O)NCc1cc(C(=O)O)c(=O)n2cc(Cc3cccc(Cl)c3F)ccc12` [Example 44, 7-(3-chloro-2-fluorobenzyl)-1-(isobutyrylaminomethyl)-4-oxo-4H-quinolizine-3-carboxylic acid], the pIC50 is 7.00 to 8.00.

For the compound `CN(Cc1cc(C(=O)O)c(=O)n2cc(Cc3cccc(Cl)c3F)ccc12)C(=O)OC(C)(C)C` [Example 41, 1-[(N-(tert-butoxycarbonyl)-N-methylamino)methyl]-7-(3-chloro-2-fluorobenzyl)-4-oxo-4H-quinolizine-3-carboxylic acid], the pIC50 was 7.00 to 8.00.

Take `N#Cc1cc(C(=O)O)c(=O)n2cc(Cc3cccc(Cl)c3F)ccc12` [Example 33, 7-(3-chloro-2-fluorobenzyl)-1-cyano-4-oxo-4H-quinolizine-3-carboxylic acid]: the pIC50 is 7.00 to 8.00.

`COCc1cc(C(=O)O)c(=O)n2cc(Cc3cccc(Cl)c3F)ccc12` [Example 19, 7-(3-chloro-2-fluorobenzyl)-1-methoxymethyl-4-oxo-4H-quinolizine-3-carboxylic acid]: the pIC50 was 6.00 to 7.00.

Turning to `CCCc1cc(C(=O)O)c(=O)n2cc(Cc3cccc(Cl)c3F)ccc12` [Example 12, 7-(3-chloro-2-fluorobenzyl)-4-oxo-1-propyl-4H-quinolizine-3-carboxylic acid], the pIC50 was 7.00 to 8.00.

On to `O=C(O)c1cc(CNC(=O)N2CCOCC2)c2ccc(Cc3cccc(Cl)c3F)cn2c1=O` [Example 47, 7-(3-chloro-2-fluorobenzyl)-1-([(morpholinocarbonyl)amino]methyl)-4-oxo-4H-quinolizine-3-carboxylic acid], for which the pIC50 is 7.00 to 8.00.

With `CNCc1cc(C(=O)O)c(=O)n2cc(Cc3cccc(Cl)c3F)ccc12` [Example 21, 7-(3-chloro-2-fluorobenzyl)-1-methylaminomethyl-4-oxo-4H-quinolizine-3-carboxylic acid], the negative-log IC50 (pIC50) is 6.00 to 7.00.

As to `CC(=O)NCC(=O)NCc1cc(C(=O)O)c(=O)n2cc(Cc3cccc(Cl)c3F)ccc12` [Example 57, 1-[(2-acetylaminoacetylamino)methyl]-7-(3-chloro-2-fluorobenzyl)-4-oxo-4H-quinolizine-3-carboxylic acid], the pIC50 was 6.00 to 7.00.
